How the values were obtained:
atherosclerotic plaques = experiment: Atherosclerotic plaque quantification from H&E stained aorta sections; assay type: in vivo, Apoe−/− mice; conditions: for volumes of atherosclerotic plaques: 5 mg/kg study
Method: Apoe−/−mice bearing dual diseases received the treatment. After surgical resection of the primary tumors, tumor recurrence and mouse survival were monitored. Mice with tumor recurrence and reached the endpoint were sacrificed. Aorta tissues of the mice were collected at the time point. Serial frozen tissue sections were cut throughout the tissue blocks and stained with H&E. Size of plaques in all arteries of each of the H&E stained tissue sections were measured and total size of the plaques from eight tissue sections of each mouse was compared with the mean of the total plaque area of the no treatment control (100%). For PD1Y-HANP/Ava group that sacrificed at 120 days, an additional no treatment group that was time equivalent was used as a control for the progression of atherosclerosis.
Apoe−/−mice bearing subcutaneous mouse colon tumors were treated with different reagents every 3-4 days for three treatments. Three days following the last treatment, all mice were sacrificed, and aorta arteries were collected. Plaque volumes were quantified from serial H&E tissue sections. During 12 days of treatment, PD1Y-HANP/Avasimibe treated mice had 56% reduction of the total plaque volume in the dual disease mouse model.
Following treatments and by the end of the survival study, the aorta tissues were collected.
In order to enhance the therapeutic effect a combination of PD-L1 targeted delivery of HANP/Avasimibe was tested with uPAR targeted delivery of SN38 (7-Ethyl-10-hydroxycamptothecin), which is an active metabolite of irinotecan that is commonly used for the treatment of colon cancer. […] The effect of ATFmmp14-HANP/SN38 alone or in combination with PD1Y-HANP/Avasimibe at 5 mg/kg of Avasimibe and PD1Y peptide dose/injection was examined in a dual mouse colon cancer and atherosclerosis model. […] Significant reductions of the volumes of atherosclerotic plaques in all treatment groups were detected.

[1] = tested on: MC38 mouse colon cancer cells; experiment: Cell proliferation assay; assay type: cell-based; conditions: MC-38, read-out: IC50, inhibition of tumor cell proliferation
Text: Hydrophobic 5β-cholanic acid was conjugated to HA (HACA) to promote self-assembly and assist in loading of hydrophobic drug molecule avasimibe (Ava). HANP/Ava is produced by self-assembling of HACA and avasimibe using a high-pressure homogenizer. Amount of encapsulated avasimibe could reach to 20% (w/w) in HANP/Ava. PD1Y-HANP/Ava was produced by conjugating chemically synthesized PD1Y peptides, mediated by cysteine of PD1Y and maleimide of a short-PEG (12×) linker (FIG. 1B). A ratio of PD1Y to HANP at 17:1 was used. If a high concentration of PD1Y peptides will be needed for improvement of immune checkpoint inhibition, the amount of PD1Y peptides could be further increased up to 200 peptides per HANP.

[2] = tested on: s.c. mouse colon tumors (MC38); experiment: Tumor growth in dual colon cancer and atherosclerosis mouse model; assay type: in vivo, Apoe−/− mice; conditions: dual disease model
Method: Apoe^−/− mice on a high fat diet carrying s.c. mouse colon tumors (a dual disease model) received five i.v. treatments, once every three days, of 10 mg/kg of avasimibe or equivalent PD1Y-HANP/avasimibe, 10 mg/kg of PD1Y peptide equivalent of PD1Y-HANP or PD1Y. Residual tumors were surgically resected 6 days by surgery after the last therapy. Tumors were weighted.
Apoe−/−mice bearing s.c. MC38 tumors received i.v. treatments of 5 mg/kg of Avasimibe, 5 mg/kg of PD1Y peptide, or […] of SN38 equivalent dose of free drugs or nanoparticle drugs.
MC38 tumor specific IgG antibodies were detected in the mouse serum following PD1Y-HANP/Avasimibe treatment. […]
Apoe^−/− (Apo E gene knock-out) mouse is a commonly used mouse model for atherosclerosis. […] Histological analysis of H&E stained tissue sections using NIR fluorescence microscopy (Keyence) confirmed HANP signals in the plaques. […]
In order to enhance the therapeutic effect a combination of PD-L1 targeted delivery of HANP/Avasimibe was tested with uPAR targeted delivery of SN38 (7-Ethyl-10-hydroxycamptothecin), which is an active metabolite of irinotecan that is commonly used for the treatment of colon cancer. […] Significant reductions of the volumes of atherosclerotic plaques in all treatment groups were detected.

[3] = Targeted delivery by NIR optical imaging and NIR fluorescence microscopy; assay type: in vivo, Apoe−/− mice; conditions: systemic (i.v.) delivery, 48 hrs
Method: Apoe^−/− (Apo E gene knock-out) mouse is a commonly used mouse model for atherosclerosis. […] Apoe^−/− mice developed s.c. tumors within 2-3 weeks and extensive atherosclerosis were found in the aortas, especially in the aorta arching. Targeted delivery of PD1Y-HANPs into tumors and atherosclerotic plaques is mediated by targeting PD-L1 (PD1Y) and CD44 (HANP) expressed in both tissues. To determine efficiency of targeted delivery, NIR 830 dye labeled-PD1Y-HANPs were injected i.v. into Apoe^−/− mice bearing mouse colon tumors. […] Histological analysis of H&E stained tissue sections using NIR fluorescence microscopy (Keyence) confirmed HANP signals in the plaques. PD1Y-HANPs were found as clusters in the stromal and tumor areas, with a higher level in necrotic tumor regions.
(§1) A uPAR targeted stroma-penetrating ligand (ATFmmp14) was developed containing the amino terminal fragment of uPA fused with the catalytic domain of MMP14. […] ATFmmp14 targets to tumor stromal fibroblasts and macrophages and MMP14 digests extracellular matrixes. […] Without PD1Y or ATFmmp14 conjugation, lower levels of HANP/Avasimibe were present in tumors and atherosclerotic plaques. Thus, uPAR targeted ATF or ATFmmp14 conjugated PD1Y-HANP/Avasimibe enhances delivery efficiency in both plaques and tumors in dual disease mouse model or PDX model.

[4] = Intratumoral delivery in colon PDX tumors; assay type: in vivo; conditions: colon PDX tumors in NSG mice
Text: as §1

With CC(C)c1cc(C(C)C)c(CC(=O)NS(=O)(=O)Oc2c(C(C)C)cccc2C(C)C)c(C(C)C)c1 [avasimibe] the “volumes of atherosclerotic plaques” value (atherosclerotic plaques) was “decreased”, the “amount of the plaques (in words)” value (atherosclerotic plaques; following treatments and by the end of the survival study) was “significantly decreased” and the IC50 [1] was 28 µM.
For “NWNRLSPSNQTEKQAAPHHHHCGAISLHPKAKIEE [Unconjugated PD1Y peptide]”, the therapeutic efficacy [2] was “did not show therapeutic efficacy”.
In the case of CCc1c2c(nc3ccc(O)cc13)-c1cc3c(c(=O)n1C2)COC(=O)[C@]3(O)CC [SN38, 7-Ethyl-10-hydroxycamptothecin], the “volumes of atherosclerotic plaques” value (atherosclerotic plaques) is reported as “decreased”.
For “ATFmmp14: amino terminal fragment of uPA fused with the catalytic domain of MMP14; uPAR targeted stroma-penetrating ligand”, the “delivery into tumors and atherosclerotic plaques” value [3] was “high delivery efficiency” and the intratumoral delivery [4] was “high level of intratumoral delivery”.
